From patent publication US20250186437A1, “CARBOLINE COMPOUNDS AND USE THEREOF” (PTC Therapeutics, Inc., priority 2021, published 2025)
Where a name gives a salt, the structure may show the parent alone.

Experiments:
MOLM-13 cells [1] = assay: MOLM-13 Cell Proliferation Assay (indicator of DHODH inhibition); format: cell-based; settings: Homo sapiens, 72 Hours of culture, CellTiter-Glo, no uridine
How it was run: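 Proliferation readout via CellTiter-Glo luminescence after 72 h compound treatment (37 °C, 5% CO2, 0.5% DMSO) of MOLM-13 cells seeded at 10^4 per well in RPMI 1640/10% FBS, used as a DHODH-inhibition indicator since these cells rely on de novo pyrimidine synthesis.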

MOLM-13 cells [2] = assay: MOLM-13 Uridine Rescue Assay; format: cell-based; settings: Homo sapiens; MOLM-13 cell proliferation with 100 μM Uridine added, 72 Hours of culture
Experimental: The following assay was conducted to measure proliferation of MOLM-13 cells in the presence of each compound studied. This assay was included as an indicator of DHODH inhibition, as growth of MOLM-13 cells is known to depend on synthesis of pyrimidines using the de novo pathway, which can be blocked by inhibition of DHODH. • 1. MOLM-13 cells were cultured in RPMI 1640 medium+10% Fetal Bovine Serum (FBS). Only low passage cells (<20) were used for the compound tests • 2. On day 1, Log-phase growing Molm-13 Cells were counted and diluted to 10^5 cells/mL in RPMI 1640 medium+10% FBS • 3. 100 μL of diluted MOLM-13 cells in 96 well white plates were seeded, for a final density of 10^4 cells/well. • 4. 0.5 μL of pre-diluted 200× compounds or DMSO control was added to each well. The final DMSO concentration was 0.5%. • 5. After 72 Hours of culture at 37° C., 5% CO2, the plates were taken out and cooled to RT, then 50 μL CellTiter-Glo® (Promega) was added, and the composition was mixed at RT for 10 minutes. • 6. The plates were then read by ViewLux (Speed-fast, Gain-High, Bining-1X, 5 seconds).
Several compounds were also tested in a Uridine rescue assay. In the Uridine rescue assay, using the procedure in Example 1 above, an additional plate of MOLM-13 cell cultures was prepared, to which 100 μM of Uridine was added in step 3 of the process.

Row | Structure (SMILES) | IC50 (MOLM-13 cells [1]) [nM] | IC50 (MOLM-13 cells [2]) [nM]
1 | FC(F)(F)c1ccnc(N2CCc3c([nH]c4ccc(-n5nccn5)cc34)C2c2cnc(N3CCOCC3)nc2)n1 (centres unmarked) [Compound 288, 1-[2-(morpholin-4-yl)pyrimidin-5-yl]-6-(2H-1,2,3-triazol-2-yl)-2-[4-(trifluoromethyl)pyrimidin-2-yl]-2,3,4,9-tetrahydro-1H-pyrido[3,4-b]indole] | 4.6 | 11400
2 | Cc1ccc(C2c3[nH]c4ccc([N+](=O)[O-])cc4c3CCN2c2nccc(C(F)(F)F)n2)c(F)c1F (centres unmarked) [Compound 305, 1-(2,3-difluoro-4-methylphenyl)-6-nitro-2-[4-(trifluoromethyl)pyrimidin-2-yl]-2,3,4,9-tetrahydro-1H-pyrido[3,4-b]indole] | 1 | 11600
3 | FC(F)(F)c1ccnc(N2CCc3c([nH]c4ccc(-n5nccn5)cc34)C2c2ccc(N3CCOCC3)nc2)n1 (centres unmarked) [Compound 316, 1-[6-(morpholin-4-yl)pyridin-3-yl]-6-(2H-1,2,3-triazol-2-yl)-2-[4-(trifluoromethyl)pyrimidin-2-yl]-2,3,4,9-tetrahydro-1H-pyrido[3,4-b]indole] | 3.8 | 10700
4 | Cc1ccc(C2c3[nH]c4ccc(N(C)C)cc4c3CCN2c2nccc(C(F)(F)F)n2)c(F)c1F (centres unmarked) [Compound 330, 1-(2,3-difluoro-4-methylphenyl)-N,N-dimethyl-2-[4-(trifluoromethyl)pyrimidin-2-yl]-2,3,4,9-tetrahydro-1H-pyrido[3,4-b]indol-6-amine] | 11.3 | 11500
5 | Cc1ccc(C2c3[nH]c4ccc(Cl)cc4c3CCN2c2nc(C(F)(F)F)cc(C(F)(F)F)n2)c(F)c1F (centres unmarked) [Compound 340, 2-[4,6-bis(trifluoromethyl)pyrimidin-2-yl]-6-chloro-1-(2,3-difluoro-4-methylphenyl)-2,3,4,9-tetrahydro-1H-pyrido[3,4-b]indole] | 1 | 15200
6 | Cc1ccc(C2c3[nH]c4ccc(Cl)cc4c3CCN2c2nccc(C(F)(F)F)n2)cc1 (centres unmarked) [Compound 343, 6-chloro-1-(4-methylphenyl)-2-[4-(trifluoromethyl)pyrimidin-2-yl]-2,3,4,9-tetrahydro-1H-pyrido[3,4-b]indole] | 3.3 | 19800
7 | Cc1nc(C)nc(N2CCc3c([nH]c4ccc(Cl)cc34)[C@@H]2c2ccc(C)c(F)c2F)n1 [Compound 347, (1S)-6-chloro-1-(2,3-difluoro-4-methylphenyl)-2-(4,6-dimethyl-1,3,5-triazin-2-yl)-2,3,4,9-tetrahydro-1H-pyrido[3,4-b]indole] | 1.1 | 2770
8 | Cc1nc(C)nc(N2CCc3c([nH]c4c(O)cc(Cl)cc34)C2c2ccc(C)c(F)c2F)n1 (centres unmarked) [Compound 348, 6-chloro-1-(2,3-difluoro-4-methylphenyl)-2-(4,6-dimethyl-1,3,5-triazin-2-yl)-2,3,4,9-tetrahydro-1H-pyrido[3,4-b]indol-8-ol] | 1.2 | 2000
9 | Cc1ccc(C2c3[nH]c4ccc(Cl)cc4c3CCN2c2nc(C)nc(C)n2)cc1 (centres unmarked) [Compound 355, 6-chloro-2-(4,6-dimethyl-1,3,5-triazin-2-yl)-1-(4-methylphenyl)-2,3,4,9-tetrahydro-1H-pyrido[3,4-b]indole] | 11.7 | 5660
10 | FC(F)(F)c1cc(C(F)(F)F)nc(N2CCc3c([nH]c4ccc(Cl)cc34)C2c2ccc(N3CCOCC3)nc2)n1 (centres unmarked) [Compound 357, 2-[4,6-bis(trifluoromethyl)pyrimidin-2-yl]-6-chloro-1-[6-(morpholin-4-yl)pyridin-3-yl]-2,3,4,9-tetrahydro-1H-pyrido[3,4-b]indole formate (1:1)] | 0.6 | 9300
11 | Cc1ccc(C2c3[nH]c4ccc(Cl)cc4c3CCN2c2nc(C)cc(C(F)(F)F)n2)cc1 (centres unmarked) [Compound 361, 6-chloro-1-(4-methylphenyl)-2-[4-methyl-6-(trifluoromethyl)pyrimidin-2-yl]-2,3,4,9-tetrahydro-1H-pyrido[3,4-b]indole] | 1.8 | 22100
12 | Cc1ccc(C2c3[nH]c4ccc(Cl)cc4c3CCN2c2nccc(C#N)n2)c(F)c1F (centres unmarked) [Compound 363, 2-[6-chloro-1-(2,3-difluoro-4-methylphenyl)-1,3,4,9-tetrahydro-2H-pyrido[3,4-b]indol-2-yl]pyrimidine-4-carbonitrile] | 3.2 | 10300

Other lines, results leading:

Row | IC50 (MOLM-13 cells [1]) [nM] | IC50 (MOLM-13 cells [2]) [nM] | Structure (SMILES)
13 | 12.8 | 10600 | Cc1nc(C)nc(N2CCc3c([nH]c4ccc(Cl)cc34)C2c2cnc(N3CCOCC3)nc2)n1 (centres unmarked) [Compound 293, 6-chloro-2-(4,6-dimethyl-1,3,5-triazin-2-yl)-1-[2-(morpholin-4-yl)pyrimidin-5-yl]-2,3,4,9-tetrahydro-1H-pyrido[3,4-b]indole]
14 | 20.8 | 12400 | Cc1ncnc(N2CCc3c([nH]c4ccc(Cl)cc34)C2c2cnc(N3CCOCC3)nc2)n1 (centres unmarked) [Compound 294, 6-chloro-2-(4-methyl-1,3,5-triazin-2-yl)-1-[2-(morpholin-4-yl)pyrimidin-5-yl]-2,3,4,9-tetrahydro-1H-pyrido[3,4-b]indole]
15 | 1.1 | 14400 | Nc1cc(Cl)cc2c3c([nH]c12)C(c1cnc(N2CCOCC2)nc1)N(c1nccc(C(F)(F)F)n1)CC3 (centres unmarked) [Compound 310, 6-chloro-1-[2-(morpholin-4-yl)pyrimidin-5-yl]-2-[4-(trifluoromethyl)pyrimidin-2-yl]-2,3,4,9-tetrahydro-1H-pyrido[3,4-b]indol-8-amine]
16 | 2.1 | 8470 | Nc1cc2[nH]c3c(c2cc1Cl)CCN(c1nccc(C(F)(F)F)n1)C3c1cnc(N2CCOCC2)nc1 (centres unmarked) [Compound 311, 6-chloro-1-[2-(morpholin-4-yl)pyrimidin-5-yl]-2-[4-(trifluoromethyl)pyrimidin-2-yl]-2,3,4,9-tetrahydro-1H-pyrido[3,4-b]indol-7-amine]
17 | 11.7 | 9810 | Cc1nc(C)nc(N2CCc3c([nH]c4cc(N)c(Cl)cc34)C2c2cnc(N3CCOCC3)nc2)n1 (centres unmarked) [Compound 320, 6-chloro-2-(4,6-dimethyl-1,3,5-triazin-2-yl)-1-[2-(morpholin-4-yl)pyrimidin-5-yl]-2,3,4,9-tetrahydro-1H-pyrido[3,4-b]indol-7-amine]
18 | 13.4 | 9720 | Cc1nc(C)nc(N2CCc3c([nH]c4ccc(Cl)cc34)C2c2ccc(N3CCOCC3)nc2)n1 (centres unmarked) [Compound 324, 6-chloro-2-(4,6-dimethyl-1,3,5-triazin-2-yl)-1-[6-(morpholin-4-yl)pyridin-3-yl]-2,3,4,9-tetrahydro-1H-pyrido[3,4-b]indole]
19 | 2.9 | 10500 | Nc1c(Cl)ccc2[nH]c3c(c12)CCN(c1nccc(C(F)(F)F)n1)C3c1cnc(N2CCOCC2)nc1 (centres unmarked) [Compound 328, 6-chloro-1-[2-(morpholin-4-yl)pyrimidin-5-yl]-2-[4-(trifluoromethyl)pyrimidin-2-yl]-2,3,4,9-tetrahydro-1H-pyrido[3,4-b]indol-5-amine]
20 | 4.8 | 14900 | Cc1cc(C)nc(N2CCc3c([nH]c4ccc(Cl)cc34)C2c2ccc(N3CCOCC3)nc2)n1 (centres unmarked) [Compound 350, 6-chloro-2-(4,6-dimethylpyrimidin-2-yl)-1-[6-(morpholin-4-yl)pyridin-3-yl]-2,3,4,9-tetrahydro-1H-pyrido[3,4-b]indole]
21 | 8.9 | 6410 | Cc1ccnc(N2CCc3c([nH]c4ccc(Cl)cc34)C2c2ccc(N3CCOCC3)nc2)n1 (centres unmarked) [Compound 352, 6-chloro-2-(4-methylpyrimidin-2-yl)-1-[6-(morpholin-4-yl)pyridin-3-yl]-2,3,4,9-tetrahydro-1H-pyrido[3,4-b]indole]
22 | 4.6 | 6960 | N#Cc1ccnc(N2CCc3c([nH]c4ccc(Cl)cc34)C2c2ccc(N3CCOCC3)nc2)n1 (centres unmarked) [Compound 356, 2-{6-chloro-1-[6-(morpholin-4-yl)pyridin-3-yl]-1,3,4,9-tetrahydro-2H-pyrido[3,4-b]indol-2-yl}pyrimidine-4-carbonitrile]
23 | 0.8 | 12300 | FC(F)(F)c1cc(C(F)(F)F)nc(N2CCc3c([nH]c4ccc(Cl)cc34)C2c2cnc(N3CCOCC3)nc2)n1 (centres unmarked) [Compound 358, 2-[4,6-bis(trifluoromethyl)pyrimidin-2-yl]-6-chloro-1-[2-(morpholin-4-yl)pyrimidin-5-yl]-2,3,4,9-tetrahydro-1H-pyrido[3,4-b]indole formate (1:1)]
24 | 8 | 5670 | N#Cc1ccnc(N2CCc3c([nH]c4ccc(Cl)cc34)C2c2cnc(N3CCOCC3)nc2)n1 (centres unmarked) [Compound 359, 2-{6-chloro-1-[2-(morpholin-4-yl)pyrimidin-5-yl]-1,3,4,9-tetrahydro-2H-pyrido[3,4-b]indol-2-yl}pyrimidine-4-carbonitrile]
25 | 4.3 | 6810 | Cc1cc(C#N)nc(N2CCc3c([nH]c4ccc(Cl)cc34)C2c2cnc(N3CCOCC3)nc2)n1 (centres unmarked) [Compound 362, 2-{6-chloro-1-[2-(morpholin-4-yl)pyrimidin-5-yl]-1,3,4,9-tetrahydro-2H-pyrido[3,4-b]indol-2-yl}-6-methylpyrimidine-4-carbonitrile]
